Where two headings read alike, the source gives them in different places.
Columns and labels:
[1] = biological target: T1, metabotropic glutamate receptor mGluR2 (Rattus norvegicus, UniProt P31421); experiment: Antagonistic effect on glutamic acid-induced inhibition of forskolin-stimulated cAMP accumulation in CHO cells stably expressing mGluR2; format: cell-based
T1 construct: expressed in transfected cells
Experimental: Antagonistic Effect of Test Drugs on cAMP Accumulation in CHO Cells Modified to Stably Express Metabotropic Glutamate Receptor mGluR2
Using Dulbecco's modified Eagle's medium with 10% dialyzed fetal bovine serum [1% proline, 50 units/ml penicillin, 50 μg/ml streptomycin, 2 mM L-glutamine (added before use)], CHO cells modified to stably express metabotropic glutamate receptor mGluR2 were seeded in 96-well plates at a ratio of 1.26×10^4 cells/well/0.32 cm^2/150 μl and grown at 37° C. under 5% CO2 for 2 days. The medium was then replaced by L-glutamine-free medium, and after 4 hours, the supernatant was removed by aspiration. PBS(+)-IBMX (10 mM PBS(−), 1 mM MgCl2, 1 mM CaCl2, 1 mM IBMX) was added in 150 μl aliquots and the plates were incubated for 20 minutes at 37° C. under 5% CO2. […] The dried samples were assayed for cAMP levels using a cAMP EIA kit (Amersham). The value of control samples was subtracted from each measured cAMP level.

male SD rats = experiment: Antidepressant effect by forced swimming test in rats; format: in vivo, rat; settings: two i.p. injections (24 hours and 1 hour before) at 0.3, 1 or 3 mg/kg, compared to solvent group, Dunnett's test, FIGS. 1 and 2
Experimental: Evaluation of Antidepressant Effect by Forced Swimming Test in Rats
• (1) The animals used for this experiment were male SD rats (body weigh: 220–240 g, Charles River Japan). • (2) The test drugs used were:
Namely, the rats were placed in a cylinder containing water 30 cm deep and forced to swim for 15 minutes. After a period of 24 hours, the rats were forced again to swim for 5 minutes (actual experiment). The immobility time in this actual experiment was measured for each rat to evaluate the antidepressant effect of test drugs.
The test groups received two intraperitoneal injections (24 hours and 1 hour before the actual experiment) of LY341495 or Compound 34 in 1/15 M phosphate buffer at a dose of 0.3 mg/kg, 1 mg/kg or 3 mg/kg. The solvent group received only 1/15 M phosphate buffer by intraperitoneal route. • (4) The symbols * and ** in FIGS. 1 and 2 denote statistical significance at P<0.05 and P<0.01 by Dunnett's test, respectively, when compared to the solvent group receiving 1/15 M phosphate buffer.

[2] = read-out: IC50, concentration required for 50% antagonism of inhibitory effect of 30 μM glutamic acid on 10^-5 M forskolin-stimulated cAMP level
[3] = 30 μM glutamic acid, 10^-5 M forskolin

T1 sequence (P31421 19-872): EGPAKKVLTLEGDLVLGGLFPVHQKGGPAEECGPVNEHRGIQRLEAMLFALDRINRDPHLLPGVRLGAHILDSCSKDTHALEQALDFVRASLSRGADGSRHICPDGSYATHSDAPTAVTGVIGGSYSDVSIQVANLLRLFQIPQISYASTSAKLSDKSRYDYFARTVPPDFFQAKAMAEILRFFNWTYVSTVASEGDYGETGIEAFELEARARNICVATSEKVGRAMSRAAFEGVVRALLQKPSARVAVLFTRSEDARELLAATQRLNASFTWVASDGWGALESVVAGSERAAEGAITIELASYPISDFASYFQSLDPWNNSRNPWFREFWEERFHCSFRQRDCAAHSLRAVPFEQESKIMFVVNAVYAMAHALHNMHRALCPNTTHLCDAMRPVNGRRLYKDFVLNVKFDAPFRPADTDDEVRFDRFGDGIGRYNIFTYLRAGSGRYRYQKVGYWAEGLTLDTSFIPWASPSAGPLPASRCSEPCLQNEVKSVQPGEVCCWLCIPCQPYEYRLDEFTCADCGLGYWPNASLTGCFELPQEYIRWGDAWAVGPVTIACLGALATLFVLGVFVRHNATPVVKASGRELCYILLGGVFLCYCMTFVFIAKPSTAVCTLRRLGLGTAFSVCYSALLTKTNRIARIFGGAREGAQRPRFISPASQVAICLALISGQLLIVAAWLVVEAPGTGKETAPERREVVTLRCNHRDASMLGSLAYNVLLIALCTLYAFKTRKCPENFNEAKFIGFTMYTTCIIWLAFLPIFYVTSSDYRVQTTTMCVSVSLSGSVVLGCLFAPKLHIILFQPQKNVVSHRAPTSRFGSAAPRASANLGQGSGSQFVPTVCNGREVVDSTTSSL

CCOC(=O)[C@@]1(N)[C@H]2[C@@H](C[C@H]1OCc1ccc(Cl)c(Cl)c1)[C@]2(F)C(=O)O
melting point: > 233 °C

Nc1cccc(CO[C@@H]2C[C@@H]3[C@H]([C@]2(N)C(=O)O)[C@@]3(F)C(=O)O)c1 (hydrate or solvate)
melting point: > 190 °C

CC(O[C@@H]1C[C@@H]2[C@H]([C@]1(N)C(=O)O)[C@@]2(F)C(=O)O)c1ccc2ccccc2c1 (relative stereo) [57]
melting point: > 185 °C

CC(O[C@@H]1C[C@@H]2[C@H]([C@]1(N)C(=O)O)[C@@]2(F)C(=O)O)c1ccc2ccccc2c1 (relative stereo) [58]
melting point: > 188 °C

CO[C@@H]1C[C@@H]2[C@H]([C@]1(N)C(=O)O)[C@@]2(F)C(=O)O [Compound 1, (1R,2R,3R,5R,6R)-2-amino-3-methoxy-6-fluorobicyclo[3.1.0]hexane-2,6-dicarboxylic acid]
melting point: > 199 °C | IC50 [1, 2]: 229 nM

COC1C[C@@H]2[C@@H]([C@@]2(F)C(=O)O)[C@]1(N)C(=O)O (stereo partly drawn) [Compound 2]
melting point: > 171 °C

C=CCO[C@@H]1C[C@@H]2[C@H]([C@]1(N)C(=O)O)[C@@]2(F)C(=O)O [Compound 5, (1R,2R,3R,5R,6R)-2-Amino-3-(2-propenyloxy)-6-fluorobicyclo[3.1.0]hexane-2,6-dicarboxylic acid]
melting point: > 248 °C

NC1(C(=O)O)C(OCc2ccccc2)CC2C1C2(F)C(=O)O (stereo not drawn) [Compound 6]
melting point: > 226 °C | IC50 [1, 3]: 131 nM

N[C@]1(C(=O)O)[C@H]2[C@@H](C[C@H]1OCc1ccc(Cl)cc1)[C@]2(F)C(=O)O [Compound 22]
melting point: > 220 °C | IC50 [1, 2]: 29.1 nM

NC1(C(=O)O)C(OCc2ccc(F)c(F)c2)CC2C1C2(F)C(=O)O (stereo not drawn) [Compound 28]
IC50 [1, 3]: 40.8 nM

N[C@]1(C(=O)O)[C@H]2[C@@H](C[C@H]1OCc1ccc(Cl)c(Cl)c1)[C@]2(F)C(=O)O [Compound 34, (1R,2R,3R,5R,6R)-2-amino-3-(3,4-dichlorobenzyloxy)-6-fluorobicyclo[3.1.0]hexane-2,6-dicarboxylic acid]
IC50 [1, 2]: 20 nM | immobility time in forced swimming test (male SD rats): significant dose-dependent reduction in immobility time

NC1(C(=O)O)C(OCc2ccc3ccccc3c2)CC2C1C2(F)C(=O)O (stereo not drawn) [Compound 42]
melting point: > 210 °C | IC50 [1, 3]: 22.7 nM

CCCC(C)OC1C[C@@H]2[C@@H]([C@@]2(F)C(=O)O)[C@]1(N)C(=O)O (stereo partly drawn) [Compound 44]
melting point: > 170 °C

NC1(C(=O)O)C(OC(c2ccccc2)c2ccccc2)CC2C1C2(F)C(=O)O (stereo not drawn) [Compound 52]
melting point: > 230 °C | IC50 [1, 3]: 24.4 nM

N[C@](CC1c2ccccc2Oc2ccccc21)(C(=O)O)[C@H]1C[C@@H]1C(=O)O [LY341495, (2S)-2-amino-2-((1S,2S)-2-carboxycycloprop-1-yl)-3-(9-xanthyl)propionic acid, reference compound]
immobility time in forced swimming test (male SD rats): significant dose-dependent reduction in immobility time

Reference: patent US7157594B2, “6-Fluorobicyclo[3.1.0]hexane derivatives” (Taisho Pharmaceutical Co., Ltd., priority 2001, dated 2007)
